This note sets out measurements from paper PMC11299021, “Machine learning-assisted substrate binding pocket engineering based on structural information” (Briefings in Bioinformatics, 2024).

This assay has as its target T1, KvAP (Klebsiella variicola acid phosphatase) (Klebsiella variicola, UniProt B5XS64).
T1 construct: gene KPK_3238; synthetic gene in pET-22b (NdeI/BlpI), E. coli BL21(DE3); His-Trap and Superdex 75 purified
T1 sequence (B5XS64 20-248): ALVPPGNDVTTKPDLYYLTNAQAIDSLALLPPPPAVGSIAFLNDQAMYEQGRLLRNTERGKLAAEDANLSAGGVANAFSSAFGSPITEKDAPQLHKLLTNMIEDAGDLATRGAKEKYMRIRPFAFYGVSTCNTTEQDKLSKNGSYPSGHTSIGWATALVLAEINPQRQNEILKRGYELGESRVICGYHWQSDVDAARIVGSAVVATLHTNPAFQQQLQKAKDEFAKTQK
The assay is described as follows: p-nitrophenol release at […] nm (specific activity). Type of assay: biochemical. Conditions: 200 mM p-NPP disodium salt, 50 mM acetate pH 5.0, 37 °C, 20 min.

As to `O=[N+]([O-])c1ccc(OP(=O)(O)O)cc1` [p-NPP], the “p-nitrophenol release at 405 nm (specific activity)” value is listed as “The purified enzyme was used for measuring its activity against nitrophenyl phosphate (p-NPP)”.
